Legend:
[1] = test system: CD3+CD8+ lymphocytes from patients with renal cell and ovarian cancer; experiment: Screening of PAX8 candidate epitopes for recognition by T-cells (IFNγ/TNFα) in carcinoma patients; type: cell-based, human; details: for recognition by T-cells of patients in peptide pools: 4 pools of three peptides each, every peptide in two pools
From the text: To identify T-cell epitopes, they were screened for recognition by T-cells from patients with renal cell and ovarian cancer which are PAX8 positive tumours secreting cytokine IFNγ or TNFα in response to PAX 8 or control HIV peptide. By using 4 pools of three peptides each, every peptide was present in two pools.

[2] = test system: T-cells of a patient with renal cancer; experiment: Induction of a T-cell response in a cancer patient; set-up: species or system human
[3] = test system: colon cancer cell line SW480; experiment: Cr release assay, colon cancer cell line; type: cell-based
From the text: (§1) A panel of colorectal cancer cell lines has been characterized expressing both PAX2 and PAX8 to function as targets for recognition by specific T-cells (Table IV).

[4] = test system: T2-cells loaded with peptide; experiment: Cr release assay, peptide-loaded T2-cells; type: cell-based; details: T-cells induced against peptide 3496 in a renal cancer patient; 10:1 E:T; label = peptide loaded on T2
From the text: as §1

[5] = patient # 1 Ovarian, first line (IFNγ)
[6] = patient # 1 Ovarian, second line (TNFα)
[7] = patient # 2 Ovarian, first line (IFNγ)
[8] = patient # 2 Ovarian, second line (TNFα)
[9] = patient # 3 Ovarian, first line (IFNγ)
[10] = patient # 3 Ovarian, second line (TNFα)
[11] = patient # 4 Ovarian, first line (IFNγ)
[12] = patient # 4 Ovarian, second line (TNFα)
[13] = patient # 5 Ovarian, first line (IFNγ)
[14] = patient # 5 Ovarian, second line (TNFα)
[15] = patient # 6 Ovarian, first line (IFNγ)
[16] = patient # 6 Ovarian, second line (TNFα)
[17] = patient # 7 Renal cell, first line (IFNγ)
[18] = patient # 7 Renal cell, second line (TNFα)
[19] = patient # 8 Renal cell, first line (IFNγ)
[20] = patient # 8 Renal cell, second line (TNFα)
[21] = patient # 9 Renal cell, first line (IFNγ)
[22] = patient # 9 Renal cell, second line (TNFα)

Row | Substance | PAX8 candidate epitope recognized (both pools containing it reactive) [1, 5] | PAX8 candidate epitope recognized (both pools containing it reactive) [1, 6] | PAX8 candidate epitope recognized (both pools containing it reactive) [1, 7] | PAX8 candidate epitope recognized (both pools containing it reactive) [1, 8] | PAX8 candidate epitope recognized (both pools containing it reactive) [1, 9] | PAX8 candidate epitope recognized (both pools containing it reactive) [1, 10] | PAX8 candidate epitope recognized (both pools containing it reactive) [1, 11] | PAX8 candidate epitope recognized (both pools containing it reactive) [1, 12] | PAX8 candidate epitope recognized (both pools containing it reactive) [1, 13] | PAX8 candidate epitope recognized (both pools containing it reactive) [1, 14] | PAX8 candidate epitope recognized (both pools containing it reactive) [1, 15] | PAX8 candidate epitope recognized (both pools containing it reactive) [1, 16] | PAX8 candidate epitope recognized (both pools containing it reactive) [1, 17] | PAX8 candidate epitope recognized (both pools containing it reactive) [1, 18] | PAX8 candidate epitope recognized (both pools containing it reactive) [1, 19] | PAX8 candidate epitope recognized (both pools containing it reactive) [1, 20] | PAX8 candidate epitope recognized (both pools containing it reactive) [1, 21] | PAX8 candidate epitope recognized (both pools containing it reactive) [1, 22] | further results
1 | A L L S G R E M V (ALLSGREMV; listed as Homo sapiens) [Peptide 359-367] | no | no | no | no | no | no | no | no | no | no | no | no | no | no | no | no | no | no | –
2 | N L S T H Q T Y P V (NLSTHQTYPV; listed as Homo sapiens) [Peptide 288-298] | no | no | no | no | no | no | no | no | no | no | no | no | no | no | no | no | no | no | –
3 | S L S S S A F L D L (SLSSSAFLDL; listed as Homo sapiens) [Peptide 323-333] | yes | no | no | no | no | no | no | no | no | no | no | no | no | no | no | no | no | no | recognition by T-cells of patients in peptide pools [1]: recognized in both pools
4 | T L D D G K A T L (TLDDGKATL; listed as Homo sapiens) [Peptide 270-278] | no | no | no | no | no | no | no | no | no | no | no | no | no | no | no | no | no | no | –
5 | T L P G Y P P H I (TLPGYPPHI; listed as Homo sapiens) [Peptide 370-378] | no | no | no | no | no | no | no | no | no | no | no | no | no | no | no | no | no | no | –
6 | T L P G Y P P H V [Peptide 3496] | – | – | – | – | – | – | – | – | – | – | – | – | – | – | – | – | – | – | induction of specific T-cells against the peptide [2]: able to induce specific T-cells; cytolysis of SW480 inhibited by cold target ([3]; T-cells induced against peptide 3496, with cold target): 10%; specific cytolysis of colon cancer cell line SW480 ([3]; T-cells induced against peptide 3496 in a renal cancer patient): 28%; specific cytolysis (killing) of peptide-loaded T2-cells [4]: 32%
7 | T L T P S N T P L (TLTPSNTPL; listed as Homo sapiens) [Peptide 277-285] | no | no | no | no | no | no | no | no | no | no | no | no | no | no | no | no | no | yes | recognition by T-cells of patients in peptide pools [1]: recognized in both pools
